Assay results from US20100184806A1, “MODULATION OF NEUROGENESIS BY PPAR AGENTS” (BrainCells, Inc., priority 2006, published 2010).
Like-named read-outs stand apart in the source and are kept apart here.

Experiments:
mGlu7 and mGlu8 = conditions: at higher concentrations (e.g., above 1 μM); cited from earlier work
[1] = test system: KA, AMPA, and NMDA iGlu receptors; conditions: cited from earlier work
[2] = test system: human neural stem cells (hNSCs)
Description: (§1) Mitogen-free test media with a positive control for neuronal differentiation was used along with basal media without growth factors as a negative control.
(§2) A positive control for neuronal differentiation was used along with basal media without growth factors as a negative control.
(§3) Human neural stem cells (hNSCs) were isolated and grown in monolayer culture, plated, treated with varying concentrations of rosiglitazone and/or N-acetylcysteine (test compounds), and stained with TUJ-1 antibody, as described above. Mitogen-free test media with a positive control for neuronal differentiation was used along with basal media without growth factors as a negative control.
(§4) Human neural stem cells (hNSCs) were isolated and grown in monolayer culture, plated, treated with varying concentrations of ciglitazone and/or N-acetylcysteine (test compounds), and stained with TUJ-1 antibody, as described above. Mitogen-free test media with a positive control for neuronal differentiation was used along with basal media without growth factors as a negative control.
(§5) Human neural stem cells (hNSCs) were isolated and grown in monolayer culture, plated, treated with varying concentrations of pioglitazone and/or N-acetylcysteine (test compounds), and stained with TUJ-1 antibody, as described above. Mitogen-free test media with a positive control for neuronal differentiation was used along with basal media without growth factors as a negative control.
(§6) Human neural stem cells (hNSCs) were isolated and grown in monolayer culture, plated, treated with varying concentrations of troglitazone and/or N-acetylcysteine (test compounds), and stained with TUJ-1 antibody, as described above. Mitogen-free test media with a positive control for neuronal differentiation was used along with basal media without growth factors as a negative control.
(§7) The presence of synergy was determined by use of a combination index (CI). […] The CI is a quantitative measure of the nature of drug interactions, comparing the EC50's of two compounds, when each is assayed alone, to the EC50 of each compound when assayed in combination. The combination index (CI) is equal to the following formula:
(§8) where C1 and C2 are the concentrations of a first and a second compound, respectively, resulting in 50% activity in neuronal differentiation when assayed in combination; and IC1 and IC2 are the concentrations of each compound resulting in 50% activity when assayed independently.

human mGlu3 receptors = human mGlu3 receptors (Homo sapiens, UniProt Q14832); conditions: low nanomolar range, e.g. below about 10 nM, or below about 5 nM; read-out: EC50 against human mGlu3 receptors in vitro; cited from earlier work
human mGlu2 receptors = human mGlu2 receptors (Homo sapiens, UniProt Q14416); conditions: low nanomolar range, e.g. below about 10 nM, or below about 5 nM; read-out: EC50 against human mGlu2 receptors in vitro; cited from earlier work
[3] = test system: human neural stem cells (hNSCs); experiment: Neuronal differentiation of human neural stem cells (TUJ-1 staining); conditions: read-out: EC50, neuronal differentiation, extrapolated, agent alone, extrapolated based on the data
Description: as §1, §2, §3, §4, §5, §6, §7, §8

mGluR3 = mGluR3 (Homo sapiens, UniProt Q14832); conditions: read-out: IC50 against mGluR3; cited from earlier work
mGluR2 = mGluR2 (Homo sapiens, UniProt Q14416); conditions: read-out: IC50 against mGluR2; cited from earlier work
[4] = test system: Group I or Group III receptors; conditions: at sub-mM concentrations; cited from earlier work

Chain of mGluR2 (Q14416 19-872): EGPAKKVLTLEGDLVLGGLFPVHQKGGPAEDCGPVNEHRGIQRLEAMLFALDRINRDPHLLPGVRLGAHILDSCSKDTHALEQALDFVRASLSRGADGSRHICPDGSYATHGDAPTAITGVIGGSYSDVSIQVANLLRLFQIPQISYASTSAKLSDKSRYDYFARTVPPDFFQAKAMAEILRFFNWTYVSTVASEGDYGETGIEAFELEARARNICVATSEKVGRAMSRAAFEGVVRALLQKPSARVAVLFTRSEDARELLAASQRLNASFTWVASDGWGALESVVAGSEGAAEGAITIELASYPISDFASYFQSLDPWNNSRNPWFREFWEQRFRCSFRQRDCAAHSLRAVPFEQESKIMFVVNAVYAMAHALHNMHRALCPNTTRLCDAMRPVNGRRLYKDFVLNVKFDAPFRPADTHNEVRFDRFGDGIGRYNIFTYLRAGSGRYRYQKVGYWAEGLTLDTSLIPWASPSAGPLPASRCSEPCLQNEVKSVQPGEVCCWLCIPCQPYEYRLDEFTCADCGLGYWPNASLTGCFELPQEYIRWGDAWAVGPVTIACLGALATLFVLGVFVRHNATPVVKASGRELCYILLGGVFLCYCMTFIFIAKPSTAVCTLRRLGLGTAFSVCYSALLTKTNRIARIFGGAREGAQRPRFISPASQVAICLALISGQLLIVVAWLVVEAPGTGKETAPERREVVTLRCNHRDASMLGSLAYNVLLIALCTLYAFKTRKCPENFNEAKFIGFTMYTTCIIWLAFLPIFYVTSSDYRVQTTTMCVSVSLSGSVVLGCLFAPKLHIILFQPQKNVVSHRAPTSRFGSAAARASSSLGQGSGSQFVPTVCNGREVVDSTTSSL
Chain of human mGlu2 receptors (Q14416 19-872): as above
Chain of mGluR3 (Q14832 23-879): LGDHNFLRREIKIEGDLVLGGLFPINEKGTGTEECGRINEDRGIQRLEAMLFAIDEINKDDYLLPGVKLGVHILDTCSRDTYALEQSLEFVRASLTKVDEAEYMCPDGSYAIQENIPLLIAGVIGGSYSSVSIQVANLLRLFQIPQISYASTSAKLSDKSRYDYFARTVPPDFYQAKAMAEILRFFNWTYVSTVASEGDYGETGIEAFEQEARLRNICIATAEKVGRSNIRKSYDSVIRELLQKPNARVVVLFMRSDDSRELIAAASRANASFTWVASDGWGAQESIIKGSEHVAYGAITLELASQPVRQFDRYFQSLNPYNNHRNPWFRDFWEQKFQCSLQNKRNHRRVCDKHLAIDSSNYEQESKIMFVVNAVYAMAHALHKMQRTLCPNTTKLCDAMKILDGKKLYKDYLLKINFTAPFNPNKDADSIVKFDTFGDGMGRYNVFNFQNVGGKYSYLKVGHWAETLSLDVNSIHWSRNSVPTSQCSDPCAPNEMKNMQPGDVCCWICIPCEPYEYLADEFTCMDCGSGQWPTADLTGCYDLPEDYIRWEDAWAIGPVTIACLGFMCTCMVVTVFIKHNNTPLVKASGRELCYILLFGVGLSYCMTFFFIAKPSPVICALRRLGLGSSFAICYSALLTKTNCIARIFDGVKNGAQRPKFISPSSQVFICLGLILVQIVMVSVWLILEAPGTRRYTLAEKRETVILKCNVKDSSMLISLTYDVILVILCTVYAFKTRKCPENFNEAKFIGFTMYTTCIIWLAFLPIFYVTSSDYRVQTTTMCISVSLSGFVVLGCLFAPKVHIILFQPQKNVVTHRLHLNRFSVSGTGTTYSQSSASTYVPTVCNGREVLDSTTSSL
Chain of human mGlu3 receptors (Q14832 23-879): as above

| Structure (SMILES) | EC50 [2] | also measured |
| --- | --- | --- |
| N[C@](CC1c2ccccc2Oc2ccccc21)(C(=O)O)[C@H]1C[C@@H]1C(=O)O [LY341495, (2S)-2-amino-2-(1S,2S-2-carboxycycloprop-1-yl)-3-(xanth-9-yl) propanoic acid] | – | activity against mGlu7 and mGlu8 (mGlu7 and mGlu8): antagonist activity; activity against KA, AMPA, and NMDA iGlu receptors [1]: substantially inactive |
| Cc1c(C)c2c(c(C)c1O)CCC(C)(COc1ccc(CC3SC(=O)NC3=O)cc1)O2 (stereo not shown) [troglitazone, 5-(4-[(6-hydroxy-2,5,7,8-tetramethylchroman-2-yl)methoxy]benzyl)thiazolidine-2,4-dione] | 10 µM | – |
| CC(=O)N[C@@H](CS)C(=O)O [NAC, N-acetyl-L-cysteine] | 5.55 µM | – |
| CCOC(=O)C(C)(C)Oc1ccc(Cl)cc1 [clofibrate] | 2.6 µM | – |
| CC(C)(Oc1ccc(C2CC2(Cl)Cl)cc1)C(=O)O (stereo not shown) [ciprofibrate] | 2.1 µM | – |
| N[C@@]1(C(=O)O)CO[C@H]2[C@H](C(=O)O)[C@H]21 [LY379268, (−)-2-oxa-4-aminobicyclohexane-4,6-dicarboxylic acid] | – | EC50 (human mGlu3 receptors): < 0.01 µM; EC50 (human mGlu2 receptors): < 0.01 µM |
| Nc1c2c(nc3ccccc13)CCCC2 [tacrine] | 12.6 µM | – |
| O=C(Nc1ccncc1)c1cc([N+](=O)[O-])ccc1Cl [T0070907] | – | EC50 [3]: 5.4 µM |
| CC1(COc2ccc(CC3SC(=O)NC3=O)cc2)CCCCC1 (stereo not shown) [ciglitazone, 5-{4-[(1-methylcyclohexyl)methoxy]benzyl}-1,3-thiazolidine-2,4-dione] | 0.1 µM | – |
| NC1(C(=O)O)CCc2cc(P(=O)(O)O)ccc21 (racemic) [APICA, (RS)-1-amino-5-phosphonoindan-1-carboxylic acid] | – | IC50 (mGluR3): ~30 µM; IC50 (mGluR2): ~30 µM; activity against Group I or Group III receptors [4]: no appreciable activity |
| CN(CCOc1ccc(CC2SC(=O)NC2=O)cc1)c1ccccn1 (racemic) [rosiglitazone, (RS)-5-[4-(2-[methyl(pyridin-2-yl)amino]ethoxy)-benzyl]thiazolidine-2,4-dione] | 1.8 µM | – |
| CCc1ccc(CCOc2ccc(CC3SC(=O)NC3=O)cc2)nc1 (racemic) [pioglitazone, (RS)-5-(4-[2-(5-ethylpyridin-2-yl)ethoxy]benzyl)-thiazolidine-2,4-dione] | 0.348 µM | – |
